In BindingDB's records for doi:10.1016/j.jmb.2004.09.032 (Celera, 2004):
Where “and” joins values, the source holds several entries; their conditions need not be identical. Identical values can stand only once.

Legend:
Experiment in all cases: Enzyme Assay and Determination of the Inhibition Constants
[1] = target: T1, Urokinase-type plasminogen activator [179-431,I214M,N322A,S371A] (Homo sapiens, UniProt P00749, I214M/N322A/S371A)
T1 construct: 179-431
Method: (§1) Each enzyme was assayed with a set of different concentrations of each inhibitor. […] Ki(apparent) values were calculated from enzyme velocity curves using the software package BatchKi (BioKin Ltd, Madison, WI). These apparent inhibition constants were then converted to Ki values by assuming competitive inhibition and using the formula Ki = Ki(apparent)/(1 + S/Km).

[2] = target: Urokinase-type plasminogen activator (Homo sapiens, UniProt P00749)
Method: as §1

Serine protease hepsin = Serine protease hepsin (Homo sapiens, UniProt P05981)
Serine protease hepsin, sequence (P05981 1-162 limits assumed): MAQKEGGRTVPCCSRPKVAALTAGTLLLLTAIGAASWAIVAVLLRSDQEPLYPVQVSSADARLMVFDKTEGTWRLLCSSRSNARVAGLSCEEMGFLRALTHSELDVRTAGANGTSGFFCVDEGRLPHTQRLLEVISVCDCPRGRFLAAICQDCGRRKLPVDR
Serine protease hepsin, sequence (P05981 163-417 limits assumed): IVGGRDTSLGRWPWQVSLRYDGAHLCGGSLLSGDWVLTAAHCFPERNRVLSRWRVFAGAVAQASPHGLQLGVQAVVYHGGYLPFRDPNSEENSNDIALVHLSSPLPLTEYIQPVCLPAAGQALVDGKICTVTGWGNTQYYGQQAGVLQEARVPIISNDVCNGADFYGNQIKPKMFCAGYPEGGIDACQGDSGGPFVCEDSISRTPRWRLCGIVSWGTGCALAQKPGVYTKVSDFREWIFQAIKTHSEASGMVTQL
Method: as §1

Prothrombin = Prothrombin (Homo sapiens, UniProt P00734)
Method: as §1

Coagulation factor X = Coagulation factor X (Homo sapiens, UniProt P00742)
Coagulation factor X, sequence (P00742 41-179 limits assumed): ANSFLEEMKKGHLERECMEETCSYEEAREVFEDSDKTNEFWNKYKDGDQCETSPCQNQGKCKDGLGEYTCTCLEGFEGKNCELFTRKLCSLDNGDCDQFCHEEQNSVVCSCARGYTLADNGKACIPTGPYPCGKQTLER
Coagulation factor X, sequence (P00742 235-488 limits assumed): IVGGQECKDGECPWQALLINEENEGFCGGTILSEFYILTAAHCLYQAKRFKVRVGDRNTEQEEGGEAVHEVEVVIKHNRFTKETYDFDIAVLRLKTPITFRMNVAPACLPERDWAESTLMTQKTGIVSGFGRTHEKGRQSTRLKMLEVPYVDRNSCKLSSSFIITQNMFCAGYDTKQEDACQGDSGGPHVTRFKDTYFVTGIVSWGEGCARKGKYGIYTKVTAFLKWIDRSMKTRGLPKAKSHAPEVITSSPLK
Method: as §1

Serine protease 1 = Serine protease 1 (Homo sapiens, UniProt P07477); conditions: pH 7.4; 22 °C
Serine protease 1, sequence (P07477 whole entry): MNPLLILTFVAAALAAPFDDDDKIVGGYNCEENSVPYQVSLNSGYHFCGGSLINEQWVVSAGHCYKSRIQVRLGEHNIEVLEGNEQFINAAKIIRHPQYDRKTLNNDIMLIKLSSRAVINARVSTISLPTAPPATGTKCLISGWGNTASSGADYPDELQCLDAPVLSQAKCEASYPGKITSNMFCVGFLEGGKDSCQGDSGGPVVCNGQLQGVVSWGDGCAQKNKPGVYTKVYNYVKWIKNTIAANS
Method: as §1

Tryptase beta-2 = Tryptase beta-2 (Homo sapiens, UniProt P20231)
Tryptase beta-2, sequence (P20231 as listed by the source): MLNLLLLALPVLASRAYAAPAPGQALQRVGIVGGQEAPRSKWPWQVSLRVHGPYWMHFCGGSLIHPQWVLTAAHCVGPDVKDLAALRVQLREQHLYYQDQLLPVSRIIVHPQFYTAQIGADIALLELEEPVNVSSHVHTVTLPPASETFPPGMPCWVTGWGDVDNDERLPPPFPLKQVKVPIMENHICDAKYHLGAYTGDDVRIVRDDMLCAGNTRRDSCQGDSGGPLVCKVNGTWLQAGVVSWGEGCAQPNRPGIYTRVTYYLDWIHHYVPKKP
Method: as §1

Plasminogen = Plasminogen (Homo sapiens, UniProt P00747); conditions: pH 7.4; 22 °C
Plasminogen, sequence (P00747 97-580 limits assumed): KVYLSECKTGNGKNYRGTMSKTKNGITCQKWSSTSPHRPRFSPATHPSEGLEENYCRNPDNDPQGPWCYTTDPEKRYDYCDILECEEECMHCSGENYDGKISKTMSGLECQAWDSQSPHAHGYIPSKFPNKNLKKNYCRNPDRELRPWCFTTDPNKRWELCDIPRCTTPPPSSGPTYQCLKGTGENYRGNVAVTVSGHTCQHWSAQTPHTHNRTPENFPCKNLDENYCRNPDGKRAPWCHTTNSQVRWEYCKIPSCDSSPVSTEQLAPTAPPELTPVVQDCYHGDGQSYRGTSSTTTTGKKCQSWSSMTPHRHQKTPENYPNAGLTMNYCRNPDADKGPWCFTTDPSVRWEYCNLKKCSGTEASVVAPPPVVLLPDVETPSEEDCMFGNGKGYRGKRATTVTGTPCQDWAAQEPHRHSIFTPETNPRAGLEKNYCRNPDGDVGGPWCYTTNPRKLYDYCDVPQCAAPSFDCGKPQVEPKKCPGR
Plasminogen, sequence (P00747 581-810 limits assumed): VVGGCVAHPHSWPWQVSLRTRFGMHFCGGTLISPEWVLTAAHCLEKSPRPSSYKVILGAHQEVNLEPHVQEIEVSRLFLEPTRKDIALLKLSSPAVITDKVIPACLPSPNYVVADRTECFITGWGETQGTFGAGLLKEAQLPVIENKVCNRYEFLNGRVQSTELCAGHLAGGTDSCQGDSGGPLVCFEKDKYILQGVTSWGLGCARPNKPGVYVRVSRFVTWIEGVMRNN
Method: as §1

[3] = target: Tissue-type plasminogen activator (Homo sapiens, UniProt P00750)
Tissue-type plasminogen activator, sequence (P00750 whole entry): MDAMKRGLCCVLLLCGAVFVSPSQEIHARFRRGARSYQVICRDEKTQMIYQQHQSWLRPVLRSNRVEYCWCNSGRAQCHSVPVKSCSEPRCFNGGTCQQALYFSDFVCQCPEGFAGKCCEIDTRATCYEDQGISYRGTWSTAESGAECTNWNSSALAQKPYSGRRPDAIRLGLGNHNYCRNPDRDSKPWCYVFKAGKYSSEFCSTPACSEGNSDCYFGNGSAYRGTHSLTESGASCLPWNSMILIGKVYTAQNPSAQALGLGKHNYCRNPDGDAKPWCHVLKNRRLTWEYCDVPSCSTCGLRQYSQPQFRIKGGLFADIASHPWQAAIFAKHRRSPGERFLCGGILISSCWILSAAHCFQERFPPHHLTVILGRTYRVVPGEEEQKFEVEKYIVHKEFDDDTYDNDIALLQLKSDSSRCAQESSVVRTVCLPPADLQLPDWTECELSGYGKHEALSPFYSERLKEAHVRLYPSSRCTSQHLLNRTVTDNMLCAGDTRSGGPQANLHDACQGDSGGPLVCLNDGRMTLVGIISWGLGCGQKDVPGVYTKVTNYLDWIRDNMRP
Method: as §1

SMILES	Ki [1]	Ki [2]	Ki (Serine protease hepsin)	Ki (Prothrombin)	Ki (Coagulation factor X)	Ki (Serine protease 1)	Ki (Tryptase beta-2)	Ki (Plasminogen)	Ki [3]
N=C(N)c1ccc2nc(-c3cccc(OC4CCCC4)c3O)[nH]c2c1 [CA-06]	4.4 µM	0.19 µM	–	–	–	–	–	–	–
CC(C)COc1cccc(-c2nc3cc(F)c(C(=N)N)cc3[nH]2)c1O [CA-10]	23 µM	0.15 µM	–	–	–	–	–	–	–
N=C(N)c1ccc2[nH]c(-c3cccc(-c4ccccc4)c3O)cc2c1 [CRA-8696]	–	0.033 µM	0.085 µM	–	–	–	–	–	–
NC(N)=Nc1ccc(NC(=O)c2cc3ccccc3cc2O)cc1 [[amino({4-[(3-hydroxynaphthalene-2-)amido]phenyl}amino)methylidene]azanium]	10 µM	0.62 µM and 0.39 µM	2.6 µM	290 µM	> 450 µM	16 µM	2 µM	130 µM	670 µM
NC(N)=Nc1ccc(NC(=O)c2cc3ccccc3c(O)c2O)cn1 [[amino({5-[(3,4-dihydroxynaphthalene-2-)amido]pyridin-2-yl}amino)methylidene]azanium]	0.28 µM	0.017 µM and 0.041 µM	–	> 450 µM	80 µM	42 µM	–	4 µM	–
Nc1nc2cc(NC(=O)c3cc4ccccc4cc3O)ccc2[nH]1 [2-amino-5-[(3-hydroxynaphthalene-2-)amido]-1H-1,3-benzodiazol-3-ium]	42 µM	4.6 µM and 4.5 µM	2.1 µM	> 450 µM	200 µM	37 µM	–	> 75 µM	> 450 µM
C[C@H]1CCCC[C@@H]1Oc1cccc(-c2nc3cc(C(=N)N)c(F)cc3[nH]2)c1O [2-{5-[amino(iminiumyl)methyl]-6-fluoro-1H-1,3-benzodiazol-2-yl}-6-{[(1S,2S)-2-methylcyclohexyl]oxy}benzen-1-olate]	–	–	–	–	–	–	2.5 µM	–	–
CC(C)COc1cccc(-c2nc3ccc(C(=N)N)cc3[nH]2)c1O [2-{5-[amino(iminiumyl)methyl]-1H-1,3-benzodiazol-2-yl}-6-(2-methylpropoxy)benzen-1-olate]	3.9 µM	0.19 µM	–	–	–	–	–	–	–
N=C(N)Nc1ccc(NC(=O)c2cc3ccccc3cc2O)cn1 [[amino({5-[(3-hydroxynaphthalene-2-)amido]pyridin-2-yl}amino)methylidene]azanium]	1.1 µM	0.1 µM and 0.2 µM	–	54 µM	70 µM	9.6 µM	0.87 µM	130 µM	180 µM
Nc1nc2cc(NC(=O)c3cccc(-c4ccccc4)c3O)ccc2[nH]1 [2-amino-5-[(2-hydroxy-3-phenylbenzene)amido]-1H-1,3-benzodiazol-3-ium]	–	4.1 µM	> 75 µM	> 450 µM	> 450 µM	130 µM	–	> 75 µM	270 µM
N=C(N)c1cc2nc(-c3cccc(-c4ccccc4)c3O)[nH]c2cc1F [2-{5-[amino(iminiumyl)methyl]-6-fluoro-1H-1,3-benzodiazol-2-yl}-6-phenylbenzen-1-olate]	39 µM	0.37 µM	–	–	–	10 µM	4.7 µM	–	–
